According to patent US20230414499A1, “SUBLINGUAL FILM DOSAGE OF RASAGILINE OR PHARMACEUTICALLY ACCEPTABLE SALT THEREOF, AND PREPARATION METHOD THEREFOR AND USE THEREOF” (priority 2020, published 2023):
Structures can show the parent of a compound that is named as a salt. Where two headings read alike, the source gives them in different places.

Experiments:
[1] = after oral administration; cited from earlier work
[2] = Pharmacokinetic test of Beagle dogs; format: in vivo; conditions: both sexes, dog, plasma, po, intragastric administration of solution, 2 mg, n=4, read-out: Absolute bioavailability
Protocol: Sublingual film and intragastric administration: A two-period double crossover test was adopted, and the washout period was 1 week.
The dogs were fasted for 16 hours before administration and had free access to water. After 4 hours of administration, the dogs had free access to water, and food was administered. 2 mL of blood was collected from the forelimb or hindlimb vein before administration (0 h) and 0.033 h, 0.083 h, 0.167 h, 0.25 h, 0.333 h, 0.5 h, 0.75 h, 1 h, 1.5 h, 2 h, 3 h, 4 h, 6 h after administration, and placed in heparin sodium anticoagulation tubes. The collected blood samples were centrifuged immediately (1006×g, 10 min), separated to obtain the plasma and stored at −20° C.

C#CCN[C@@H]1CCc2ccccc21 [Rasagiline mesylate]
bioavailability [1]: about 36% | bioavailability [2]: 11.8%
